According to patent US5420140A, “Difluorinated quinolones useful for treating bacterial infections” (Bouchara S.A., priority 1991, dated 1995):
Values after ≈ are worked out from the molar mass of the structure shown.

Assays:
[1] = system: S. aureus CB-951; assay: Determination of MIC and MBC by microdilution method, S. aureus CB-951; type: cell-based, Staphylococcus aureus; conditions: erythromycinolincomycino, pefloxacino resistant; for MIC / MBC: Staphylococcus aureus; for MIC: CB951, 18 h, read-out: Minimal inhibitory concentration (MIC); for MIC / Minimal bactericidal concentration (MBC) / Minimal inhibitory concentration (MIC): S. aureus CB-951, methicillino; for MIC / Minimal inhibitory concentration (MIC): Mueller-Hinton broth, 18 hours at 37°; for MBC: CB951, S. aureus CB-951, methicillino, read-out: Minimal bactericidal concentration (MBC)
Procedure: (§1) The compound have been tested towards 7 reference strains:
Staphylococcus aureus CB 951
(§2) The determination of minimal inhibitory concentrations (MIC) has been performed using a microdution method (microplates and inoculator Dynatech) in liquid medium (MUELLER-HINTON broth) under a volume of 100 μl and for a range of concentrations from 128 to 0.06 mg/l, prepared from a mother liquor of antibiotics titrating 512 mg/l. The preparation of these mother liquors has been performed and vary depending on the molecules as a function of the solubility criterions. Inoculation has been done by adding in each will, 10 μl of a dilution in saline of 18 hours old broth in a brain-heart broth, such as each well contains about 10^6 bacterias/ml.
(§3) The Minimal Inhibitory Concentrations are read as the first concentration of antibiotic which will not give a growth macroscopically detectable after 18 hours incubating at 37°.

[2] = system: Bacillus subtilis ATCC 9372; assay: Determination of MIC and MBC by microdilution method, Bacillus subtilis ATCC 9372; type: cell-based; conditions: for MIC: ATCC9372, Mueller-Hinton broth, read-out: Minimal inhibitory concentration (MIC); for MIC / Minimal inhibitory concentration (MIC): 18 hours at 37°; for MBC: ATCC9372, read-out: Minimal bactericidal concentration (MBC); for Minimal inhibitory concentration (MIC): Mueller-Hinton broth
Procedure: as §1
Bacillus subtilis ATCC 9372
as §2, §3

[3] = system: Pseudomonas aeruginosa ATCC 22853; assay: Determination of MIC and MBC by microdilution method, Pseudomonas aeruginosa ATCC 22853; type: cell-based; conditions: for MIC / MBC: Pseudomonas aeruginosa; for MIC: ATCC22853, 18 h, read-out: Minimal inhibitory concentration (MIC); for MIC / Minimal bactericidal concentration (MBC) / Minimal inhibitory concentration (MIC): P. aeruginosa ATCC 22853; for MIC / Minimal inhibitory concentration (MIC): Mueller-Hinton broth, 18 hours at 37°; for MBC: ATCC22853, P. aeruginosa ATCC 22853, read-out: Minimal bactericidal concentration (MBC)
Procedure: as §1
Pseudomonas aeruginosa ATCC 22853
(§4) The preparation of these mother liquors has been performed and vary depending on the molecules as a function of the solubility criterions. Inoculation has been done by adding in each will, 10 μl of a dilution in saline of 18 hours old broth in a brain-heart broth, such as each well contains about 10^6 bacterias/ml. […]

[4] = system: Staphylococcus aureus ATCC 25923; assay: Determination of MIC and MBC by microdilution method, Staphylococcus aureus ATCC 25923; type: cell-based; conditions: for MIC / MBC: Staphylococcus aureus; for MIC: ATCC25923, 18 h, read-out: Minimal inhibitory concentration (MIC); for MIC / Minimal bactericidal concentration (MBC) / Minimal inhibitory concentration (MIC): S. aureus ATCC 25923; for MIC / Minimal inhibitory concentration (MIC): Mueller-Hinton broth, 18 hours at 37°; for MBC: ATCC25923, S. aureus ATCC 25923, read-out: Minimal bactericidal concentration (MBC)
Procedure: as §1
Staphylococcus aureus ATCC 25923
as §2, §3

[5] = system: Streptococcus faecalis ATCC 8043; assay: Determination of MIC and MBC by microdilution method, Streptococcus faecalis ATCC 8043; type: cell-based; conditions: for MBC / MIC: Enterococcus faecalis; for MBC: ATCC8043, S. faecalis ATCC 8043, read-out: Minimal bactericidal concentration (MBC); for MIC: ATCC8043, read-out: Minimal inhibitory concentration (MIC); for MIC / Minimal bactericidal concentration (MBC) / Minimal inhibitory concentration (MIC): S. faecalis ATCC 8043; for MIC / Minimal inhibitory concentration (MIC): Mueller-Hinton broth, 18 hours at 37°
Procedure: as §1
Streptococcus faecalis ATCC 8043
as §4

[6] = system: Escherichia coli ATCC 25922; assay: Determination of MIC and MBC by microdilution method, Escherichia coli ATCC 25922; type: cell-based; conditions: E. coli ATCC 25922; for MIC / MBC: Escherichia coli, ATCC25922; for MIC / Minimal inhibitory concentration (MIC): Mueller-Hinton broth, 18 hours at 37°; for MIC: read-out: Minimal inhibitory concentration (MIC); for MBC: read-out: Minimal bactericidal concentration (MBC)
Procedure: as §1
Escherichia coli ATCC 25922
as §2, §3

[7] = system: Acinetobacter Baumanii ATCC 17904; assay: Determination of MIC and MBC by microdilution method, Acinetobacter; type: cell-based; conditions: for MIC / MBC: Acinetobacter baumannii; for MIC: ATCC17904, 18 h, read-out: Minimal inhibitory concentration (MIC); for MIC / Minimal bactericidal concentration (MBC) / Minimal inhibitory concentration (MIC): Acinetobacter Baumanii ATCC 17904; for MIC / Minimal inhibitory concentration (MIC): Mueller-Hinton broth, 18 hours at 37°; for MBC: ATCC17904, Acinetobacter Baumanii ATCC 17904, read-out: Minimal bactericidal concentration (MBC)
Procedure: The compound have been tested towards 7 reference strains: […]
as §2, §3

Question: With `CCn1cc(C(=O)O)c(=O)c2cc(F)c(N3CCC(CN)CC3)c(F)c21` [Compound 1, 7-(4-aminomethylpiperidinyl-1) 6,8-difluoro 1-ethyl 4-oxo 1,4-dihydroquinoleinyl-3 carboxylic acid] as the molecule, how does the MIC [1] read?
Answer: 2 µg/mL (≈ 5.47 µM)

Question: And the MBC [1]?
Answer: 2 µg/mL (≈ 5.47 µM)

Question: What about the MIC [2] of the same molecule?
Answer: 0.25 µg/mL (≈ 0.684 µM)

Question: And the MBC [2]?
Answer: 0.25 µg/mL (≈ 0.684 µM)

Question: What about the MIC [3] of the same molecule?
Answer: 2 µg/mL (≈ 5.47 µM)

Question: What about the MBC [3] of the same molecule?
Answer: 4 µg/mL (≈ 10.9 µM)

Question: And the MIC [4]?
Answer: 0.25 µg/mL (≈ 0.684 µM)

Question: And the MBC [4]?
Answer: 0.25 µg/mL (≈ 0.684 µM)

Question: And the MBC [5]?
Answer: 0.5 µg/mL (≈ 1.37 µM)

Question: What about the MIC [5] of the same molecule?
Answer: 0.5 µg/mL (≈ 1.37 µM)

Question: What about the MIC [6] of the same molecule?
Answer: 0.5 µg/mL (≈ 1.37 µM)

Question: What about the MBC [6] of the same molecule?
Answer: 0.5 µg/mL (≈ 1.37 µM)

Question: And the MIC [7]?
Answer: 0.25 µg/mL (≈ 0.684 µM)

Question: What about the MBC [7] of the same molecule?
Answer: 0.5 µg/mL (≈ 1.37 µM)

Question: What does the source list for `C=CCn1cc(C(=O)O)c(=O)c2cc(F)c(N3CCC(NC(C)=O)CC3)c(F)c21` [Compound 9, 7-(4-acetylaminopiperidinyl-1) 6,8-difluoro 1-allyl 4-oxo 1,4-dihydroquinoleinyl-3 carboxylic acid]?
Answer: Minimal bactericidal concentration (MBC) [1]: 8 µg/mL (≈ 19.7 µM); Minimal inhibitory concentration (MIC) [1]: 4 µg/mL (≈ 9.87 µM); Minimal bactericidal concentration (MBC) [2]: 2 µg/mL (≈ 4.93 µM); Minimal inhibitory concentration (MIC) [2]: 1 µg/mL (≈ 2.47 µM); Minimal bactericidal concentration (MBC) [3]: > 128 µg/mL; Minimal inhibitory concentration (MIC) [3]: > 128 µg/mL; Minimal bactericidal concentration (MBC) [4]: 4 µg/mL (≈ 9.87 µM); Minimal inhibitory concentration (MIC) [4]: 1 µg/mL (≈ 2.47 µM); Minimal bactericidal concentration (MBC) [5]: 16 µg/mL (≈ 39.5 µM); Minimal inhibitory concentration (MIC) [5]: 4 µg/mL (≈ 9.87 µM); Minimal bactericidal concentration (MBC) [6]: 32 µg/mL (≈ 78.9 µM); Minimal inhibitory concentration (MIC) [6]: 16 µg/mL (≈ 39.5 µM); Minimal bactericidal concentration (MBC) [7]: 8 µg/mL (≈ 19.7 µM); Minimal inhibitory concentration (MIC) [7]: 4 µg/mL (≈ 9.87 µM)

Question: What does the source list for `C=CCn1cc(C(=O)O)c(=O)c2cc(F)c(N3CCC(CN)CC3)c(F)c21` [Compound 6, 7-(4-aminomethylpiperidinyl-1) 6,8-difluoro 1-allyl 4-oxo 1,4-dihydroquinoleinyl-3 carboxylic acid]?
Answer: MIC [1]: 32 µg/mL (≈ 84.8 µM); MBC [1]: 64 µg/mL (≈ 170 µM); MIC [2]: 1 µg/mL (≈ 2.65 µM); MBC [2]: 2 µg/mL (≈ 5.3 µM); MIC [3]: 8 µg/mL (≈ 21.2 µM); MBC [3]: 16 µg/mL (≈ 42.4 µM); MIC [4]: 1 µg/mL (≈ 2.65 µM); MBC [4]: 2 µg/mL (≈ 5.3 µM); MBC [5]: 4 µg/mL (≈ 10.6 µM); MIC [5]: 1 µg/mL (≈ 2.65 µM); MIC [6]: 1 µg/mL (≈ 2.65 µM); MBC [6]: 2 µg/mL (≈ 5.3 µM); MIC [7]: 1 µg/mL (≈ 2.65 µM); MBC [7]: 2 µg/mL (≈ 5.3 µM)

Question: For `C=CCn1cc(C(=O)O)c(=O)c2cc(F)c(N3CCC(CNC(=O)NC(=O)c4ccccc4)CC3)c(F)c21` [Compound 11, 7-[(4-benzoylaminocarboxamidomethyl)piperidinyl-1] 6,8-difluoro 1-allyl 4-oxo 1,4-dihydroquinoleinyl-3 carboxylic acid], which “Minimal bactericidal concentration (MBC)” value [1] is on record?
Answer: 4 µg/mL (≈ 7.63 µM)

Question: And the “Minimal inhibitory concentration (MIC)” value [1]?
Answer: 4 µg/mL (≈ 7.63 µM)

Question: And the “Minimal bactericidal concentration (MBC)” value [2]?
Answer: 1 µg/mL (≈ 1.91 µM)

Question: And the “Minimal inhibitory concentration (MIC)” value [2]?
Answer: 0,5 μg/ml

Question: What about the “Minimal bactericidal concentration (MBC)” value [3] of the same molecule?
Answer: > 128 µg/mL

Question: And the “Minimal inhibitory concentration (MIC)” value [3]?
Answer: 128 µg/mL (≈ 244 µM)

Question: And the “Minimal bactericidal concentration (MBC)” value [4]?
Answer: 4 µg/mL (≈ 7.63 µM)

Question: What about the “Minimal inhibitory concentration (MIC)” value [4] of the same molecule?
Answer: 1 µg/mL (≈ 1.91 µM)

Question: And the “Minimal bactericidal concentration (MBC)” value [5]?
Answer: 32 µg/mL (≈ 61 µM)

Question: What about the “Minimal inhibitory concentration (MIC)” value [5] of the same molecule?
Answer: 16 µg/mL (≈ 30.5 µM)

Question: What about the “Minimal bactericidal concentration (MBC)” value [6] of the same molecule?
Answer: > 128 µg/mL

Question: And the “Minimal inhibitory concentration (MIC)” value [6]?
Answer: 128 µg/mL (≈ 244 µM)

Question: What about the “Minimal bactericidal concentration (MBC)” value [7] of the same molecule?
Answer: 4 µg/mL (≈ 7.63 µM)

Question: And the “Minimal inhibitory concentration (MIC)” value [7]?
Answer: 1 µg/mL (≈ 1.91 µM)
